Patent US10555930B2, “Complex of a glucopyranosyl derivative and preparation method and use thereof” (SUNSHINE LAKE PHARMA CO., LTD., priority 2015, dated 2020)

Key:
[1] = Measurement of stability (high-temperature, high-humidity and photostability tests; HPLC impurity content); type: physicochemical; settings: for total impurity / purity: 210 nm
Description: An appropriate amount of the Complex (IA) sample (prepared from example 2) was weighed and tiled on a clean culture dish at a thickness of ≤5 mm, and analyzed under the following conditions:
The test sample was placed under a high temperature condition (60±2° C.) for 10 d, the relative indexes were measured at the fifth and tenth days. […] If no significant change, the test at 40° C. was not necessary.
The test sample was placed under a 25° C. and RH 90%±5% condition for 10 d, and the sample were measured at the fifth and tenth days. Test items should include a moisture-absorption weight gain. If weighting percentage of moisture absorption was more than 5%, the test should be carried out under a 25° C. and RH 75%±5% condition using the same method; If weighting percentage of moisture absorption was less than 5%, and other inspection items met the requirements, the test was not necessary. The constant humidity condition can be realized by adopting constant temperature humidity chamber or placing a saturated saline solution under a closed container. […]
The test sample was placed in light box or other suitable light vessel under a 4500 Lx±500 Lx of illuminance condition for 10 d, and the sample were measured at the fifth and tenth days.
The impurity content of the sample was calculated by the normalization method of peak area using an HPLC chromatographic instrument under the above condition, the analytic conditions were shown below:
The detection was performed on Agilent 1200DAD high pressure liquid chromatography spectrometer (Zorbax Eclipse Plus C18 150×4.6 mm chromatographic column).
The test condition of HPLC: the run time was 30 minutes (min); the column temperature was 35° C.; the detection was carried out at the wavelength of 210 nm and 225 nm;
Mobile phase: phase C: acetonitrile phase D: ultrapure water flow rate: 1.0 mL/min.
Gradient elution, the ratio of mobile phase was shown as table B.

[2] = Measurement of hygroscopicity (Chinese Pharmacopoeia 2010, part II, appendix XIXJ); type: physicochemical; settings: 25° C.±1° C., constant humidity (ammonium chloride or ammonium sulfate saturated solution), 24 h
Description: Test method: According to the method regulated by Chinese pharmacopoeia 2010, part II, appendix XIXJ, a dry glass weighing bottle with a stopper (outside diameter is 50 mm, high is 15 mm) was placed in a thermostatic drier (an ammonium chloride or ammonium sulfate saturated solution was placed in the bottom) at 25° C.±1° C. before one day of experiment, the empty glass weighing bottle with a stopper was weighed accurately by using METTLERTOLEDO XP205DR analytical balance, and recorded as m1. An appropriate amount of the Complex (IA) sample (prepared from example 2) was tiled on the above weighing bottle at a thickness of 1 mm, which was weighed accurately and recorded as m2. Opening the bottle, the bottle was placed under the above constant temperature and humidity condition for 24 h […]. Closing the bottle with the stopper, the bottle was weighed accurately, and recorded as m3, the weight gain percentage (%) was calculated.
The judgement of the results hygroscopicity was shown as table C.

[3] = Pharmacokinetic evaluation in beagles after intravenous injection and oral administration; type: in vivo; settings: 0.1 mg/kg
Description: The test sample (Complex (IA) prepared from example 2 of the invention) was dissolved in normal saline (100%) to get a solution at a concentration of 0.04 mg/mL, which was administered by i.v; the same test sample was suspended in 0.5% HPMC to get a suspension at a concentration of 0.02 mg/mL, 0.10 mg/mL, 0.50 mg/mL, 2.00 mg/mL, which was administered by gavage. The beagles were grouped randomly, each dosage group had 6 beagles, half male and half female, which were fasted for 12 h before administered, free drank. After administration of 4 h, beagles uniform ate. The single oral administration group was grouped to 4 dosage groups, which were administered the test sample suspension by gavage respectively, the dosage respectively was 0.1, 0.5, 2.5 and 10 mg/kg, and the volume of the suspension was 5 mL/kg. The blood samples were collected before administration of 0 h, and after administration of 0.25, 0.5, 1.0, 2.0, 4.0, 6.0, 8.0, 10, 12 and 48 h from lateral small saphenous vein or medial head vein of forelimb, which were placed into EDTA-K2 anticoagulative tubes. The i.v group had one dosage group, the test sample solution was administered by i.v at a dosage of 0.1 mg/kg, and the volume of the solution was 2.5 mL/kg. The blood samples were collected before administration of 0 h, and after administration of 5 min, 15 min, 0.5, 1.0, 2.0, 4.0, 6.0, 8.0, 10, 12 and 48 h from lateral small saphenous vein or medial head vein of forelimb, which were placed into EDTA-K2 anticoagulative tubes. The blood samples were centrifuged for 2 min at 11000 rpm, the plasma samples were isolated and stored at −70° C.±10° C.
The concentration of the test sample in plasma was analyzed by the LC-MS/MS method, the pharmacokinetic parameters were calculaged by the […] model method using WinNonlin 6.3 software, and drug-time curve was plotted.
The LC/MS/MS system comprised Agilent 1200 series vacuum […], binary pumps, well-plate autosampler, thermostatted column compartment, the API 4000 QTRAP Triple Quadrupole Mass Spectrometer with an electrosprayionization (ESI) source. Quantitative analysis was carried out using MRM mode.
A Waters Xbridge-C18, 2.1×30 mm, […] column was used for the analysis, 5 μL of the sample was injected. Analysis condition: The mobile phase was […] ammonium formate+0.1% formic acid in water (A) and 2 mM ammonium formate+0.1% formic acidin methanol (B). The flow rate was 0.4 mL/min And the gradient of Mobile phase was in the Table E.

[4] = high humidity (25° C., RH 90%±5%), 5 d, HPLC
[5] = high humidity (25° C., RH 90%±5%), 10 d, HPLC
[6] = high-temperature (60±2° C.), 5 d, HPLC
[7] = high-temperature (60±2° C.), 10 d, HPLC
[8] = illumination (4500 Lx±500 Lx), 5 d, HPLC
[9] = illumination (4500 Lx±500 Lx), 10 d, HPLC
[10] = both sexes, beagle, dog, plasma, iv, i.v
[11] = both sexes, beagle, dog, plasma, po, p.o

total impurity ([1]; 0 d, HPLC peak area normalization): 0.15%
purity ([1]; 0 d, HPLC): 99.85%
purity [1, 4]: 99.85%
total impurity [1, 4]: 0.15%
purity [1, 5]: 99.81%
total impurity [1, 5]: 0.19%
purity [1, 6]: 99.83%
total impurity [1, 6]: 0.17%
purity [1, 7]: 99.81%
total impurity [1, 7]: 0.19%
stability (summary in words) ([1]; high-temperature, high humidity or illumination for 10 d): good stability
purity [1, 8]: 99.83%
total impurity [1, 8]: 0.17%
purity [1, 9]: 99.78%
total impurity [1, 9]: 0.22%
weight gain percentage [2]: 0.27%
AUC(0-t) [3, 10]: 617 ng·h/mL
Cmax [3, 10]: 148 ng/mL
half-life [3, 10]: 8.97 h
half-life ([3]; both sexes, beagle, dog, plasma, oral, p.o): 8.88 h
bioavailability ([3]; both sexes, beagle, dog, plasma, po, p.o, read-out: F (oral bioavailability)): 97.5%
AUC(0-t) [3, 11]: 602 ng·h/mL
Cmax [3, 11]: 66.2 ng/mL
F (oral bioavailability) ([3]; p.o): 97.57%
SMILES: CCOc1ccc(Cc2cc([C@]34OC[C@]([C@@H](C)O)(O3)[C@@H](O)[C@H](O)[C@H]4O)ccc2Cl)cc1 [Complex (IA), Complex (IA) of (1R,2S,3S,4R,5S)-5-(4-chloro-3-(4-ethoxybenzyl)phenyl)-1-((1R)-1-hydroxyethyl)-6,8-dioxabicyclo[3.2.1]octane-2,3,4-triol (I-n) and L-pyroglutamic acid]
